Results published in patent publication US20250313546A1, “NUCLEIC ACID BINDERS” (UNIVERSITY OF STRATHCLYDE, priority 2022, published 2025).
Converted amounts (≈) assume the structure as drawn.

Legend:
T. evansi AntTat 3/3 = assay: Resazurin-based (Alamar blue) drug sensitivity assay; settings: read-out: IC50 T. evansi
Experimental: (§2) A detailed description of the procedure for evaluating activity against trypanosomes, using an Alamar Blue (resazurin) assay, is described below.
(§3) The bloodstream form (BSF) T. b. brucei s427 (see De Koning, H. P. et al., Mol. Biochem. Parasitol. 2000, 106, 181-185), T. evansi AntTat 3/3 (see Dean, S. et al., Proc. Natl. Acad. Sci. USA, 2013, 110, 14741-14746), and T. equiperdum (see Stewart, M. L. et al., Eukaryot. Cell, 2010, 9, 336-343) were cultured in HMI-9 medium (Life Technologies, Paisley, United Kingdom) supplemented with 10% heat inactivated Foetal Bovine Serum (FBS (PAA Laboratories Linz, Austria)), 14 μL/L β-mercaptoethanol (BDH, Dorset, UK), and 3.0 g/L NaHCO3 (Sigma-Aldrich) and adjusted to pH 7.4. These cell lines were maintained at 37° C. in a humidified, 5% CO2 environment.
(§4) A resazurin-based (Alamar blue) drug sensitivity assay was used to assess and compare the activity of standard trypanocides in the different cell lines investigated (see Gould, M. K. et al., Anal. Biochem., 2008, 382, 87-93). Briefly, 23 doubling dilutions of the test compound of the invention, starting at 100 μM, and a compound-free control were prepared in 100 μL medium in a 96-well white plate (Greiner Bio-one, Frickenhausen, Germany). The cells were adjusted to 2×10^4 cells/mL for T. b. brucei and T. equiperdum; 4×10^4 cells/mL for T. evansi; and 5×10^5 cells/mL for T. congolense in the appropriate medium. 100 μL of the adjusted cells was then added to the wells containing drug dilutions and incubated for 48 h under respective culture condition. Thereafter, 20 μL of 125 mg/mL resazurin sodium dye was added, and the plate was incubated for a further 24 h.

[1] = system: SARS-CoV-2 (hCoV-19/Australia/VIC01/2020); assay: SARS-CoV-2 microplaque inhibition assay in Vero-E6 cells; assay type: cell-based; settings: for IC50: Severe acute respiratory syndrome coronavirus 2, Vero C1008, plaque inhibition, Vero-E6 cells, read-out: IC50 SARS-CoV-2
[2] = system: Candida glabrata (ACPF3309); settings: for MIC99: Nakaseomyces glabratus, read-out: MIC99 Candida glabrata
Experimental: The Minimum Inhibitory Concentration (MIC, at 99% inhibition) of the compounds was determined using the broth microdilution method as recommended by EUCAST (EUCAST Definitive Document E.DEF 9.3.2, Method for the determination of broth dilution minimum inhibitory concentrations of antifungal agents for conidia forming moulds and EUCAST Definitive Document E.DEF 7.3.2 Method for the determination of broth dilution minimum inhibitory concentrations of antifungal agents for yeasts).

Candida auris (H.17.157) = settings: for MIC99: Candidozyma auris, read-out: MIC99 Candida auris; for C. auris Selectivity Indices, Group: Alkyl Amidines and NH Pyrroles
[3] = system: Genomic double stranded DNA (salmon); assay: Fluorescence intercalator displacement (FID) assay, SYBR-safe probe; settings: 20 μM compound, 30° C., lower % = stronger binding
Procedure, shortened: (§1)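 Probe displacement was measured at 30 °C in 1 mM phosphate pH 7.4 containing SybrSafe (12500-fold dilution), 3.76 ng/mL nucleic acid (salmon dsDNA or polyAU dsRNA) and 20 μM compound. Fluorescence loss is normalised between probe-only and probe-plus-nucleic-acid controls.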

[4] = system: PolyAU double stranded RNA; assay: as above; settings: 20 μM compound, 30° C., lower % = stronger binding
Procedure, shortened: as §1

[5] = system: A. fumigatus A1160 (MFIG001); settings: Aspergillus fumigatus, read-out: MIC99 A. fumigatus A1160
[6] = system: Enterococcus faecalis (ATCC 51299); assay: Antibacterial MIC, broth microdilution (CLSI); assay type: cell-based; settings: for MIC80: Enterococcus faecalis, ATCC51299, read-out: MIC80 E. faecalis; for E. faecalis Selectivity Indices, Group: Alkyl Amidines and NH Pyrroles
[7] = system: Human rhinovirus (HRV-14); assay: Viral ToxGlo assay, Hela Ohio cells; assay type: cell-based; settings: M-HeLa, 72 h
C. neoformans (F10025) = settings: Cryptococcus neoformans, read-out: MIC99 C. neoformans
T. equiperdum = assay: Resazurin-based (Alamar blue) drug sensitivity assay; settings: Trypanosoma equiperdum, read-out: IC50 T. equiperdum
Experimental: as §2, §3, §4

Influenza (H1N1) = assay: Accelerated Viral Neuraminidase Inhibition Assay (AVINA), A549 cells; assay type: cell-based; settings: Influenza A virus, 72 h
[8] = system: Rhizopus arrhizus (NEQAS12.35321); settings: read-out: MIC99 Rhizopus arrhizus
[9] = system: Escherichia coli (ATCC 25922); assay: Antibacterial MIC, broth microdilution (CLSI); assay type: cell-based; settings: Escherichia coli, ATCC25922; read-out: MIC80 E. coli
[10] = system: Staphylococcus aureus (ATCC 43300); assay: Antibacterial MIC, broth microdilution (CLSI); assay type: cell-based; settings: for S. aureus Selectivity Indices, Group: Alkyl Amidines and NH Pyrroles; for MIC80: Staphylococcus aureus, ATCC43300, read-out: MIC80 S. aureus
T. vaginalis = assay: Trichomonas resorufin assay; assay type: cell-based; settings: for T. vaginalis Selectivity Indices, Group / T. vaginalis Selectivity Index (SI): SI, IC50 (μM)/IC50 (μM), HEK293 cytotoxicity; for IC50: Trichomonas vaginalis, read-out: IC50 T. vaginalis; for T. vaginalis Selectivity Index (SI): numeric value
[11] = system: human respiratory syncytial virus (RSV A2); assay: Viral ToxGlo assay, Hep-2 cells; assay type: cell-based; settings: 72 h
[12] = SI, IC50 (μM)/MIC99 (μg/mL), HEK293 cytotoxicity
[13] = SI, IC50 (μM)/MIC80 (μM), HEK293 cytotoxicity
[14] = SI, IC50 (μM)/MIC80 (μM), HEK293 cytotoxicity, numeric value

Structure (SMILES) | MIC99 [2] | MIC99 (Candida auris (H.17.157)) | % Normalised Fluorescence with gDNA [3] | % Normalised Fluorescence with polyAU RNA [4] | MIC99 [5] | MIC80 [6] | E. faecalis Selectivity Indices, Group [6, 13] | inhibition at 20 µM [7] | MIC99 (C. neoformans (F10025)) | inhibition at 20 µM (Influenza (H1N1)) | MIC99 [8] | MIC80 [9] | S. aureus Selectivity Indices, Group [10, 13] | MIC80 [10] | IC50 (T. vaginalis) | inhibition at 20 µM [11] | also measured
CN(C)c1ccc(/C=C/c2ccc(C(=O)Nc3c[nH]c(C(=O)Nc4c[nH]c(C(=O)NCCC(=N)N)c4)c3)cn2)cc1 [IIIa9, (E)-N-(5-((5-((3-amino-3-iminopropyl)carbamoyl)-1H-pyrrol-3-yl)carbamoyl)-1H-pyrrol-3-yl)-6-(4-(dimethylamino)styryl)nicotinamide] | < 5 µg/mL | 5 to 25 µg/mL (≈ 9.03 to 45.2 µM) | 16% | 24% | 5 to 25 µg/mL (≈ 9.03 to 45.2 µM) | 5 to 25 µM (≈ 2.77 to 13.8 µg/mL) | C (Group C: 5 < SI <= 10) | 25 to 50% | < 5 µg/mL | 10 to 25% | 5 to 25 µg/mL (≈ 9.03 to 45.2 µM) | 25 to 100 µM (≈ 13.8 to 55.4 µg/mL) | C (Group C: 5 < SI <= 10) | 5 to 25 µM (≈ 2.77 to 13.8 µg/mL) | – | – | IC50 (T. evansi AntTat 3/3): 0.1 to 1 µM; SARS-CoV-2 Selectivity Indices, Group ([1]; SI, IC50 (μM)/IC50 (μM), HEK293 cytotoxicity, Alkyl Amidines and NH Pyrroles): D (Group D: SI > 25); SARS-CoV-2 Selectivity Index (SI) ([1]; SI, IC50 (μM)/IC50 (μM), HEK293 cytotoxicity, numeric value): 33; IC50 [1]: < 2 µM; C. glabrata Selectivity Indices, Group ([2]; SI, IC50 (μM)/MIC99 (μg/mL), HEK293 cytotoxicity, Alkyl Amidines and NH Pyrroles): C (Group C 20 < SI <= 50); C. auris Selectivity Indices, Group (Candida auris (H.17.157); [12]): D (Group D SI > 3); C. auris Selectivity Index (SI) (Candida auris (H.17.157); SI, IC50 (μM)/MIC99 (μg/mL), HEK293 cytotoxicity, numeric value): 6; IC50 (T. equiperdum): > 1 µM
CN(C)c1ccc(/C=C/c2ccc(C(=O)Nc3c[nH]c(C(=O)Nc4c[nH]c(C(=O)NCCN5CCOCC5)c4)c3)cn2)cc1 [IIIb7, (E)-6-(4-(dimethylamino)styryl)-N-(5-((5-((2-morpholinoethyl)carbamoyl)-1H-pyrrol-3-yl)carbamoyl)-1H-pyrrol-3-yl)nicotinamide] | – | – | 63% | 44% | – | > 100 µM | – | 10 to 25% | – | – | – | > 100 µM | B (Group B: 3 < SI <= 5) | 5 to 25 µM (≈ 2.98 to 14.9 µg/mL) | – | – | –
COCCOCCOCCNC(=O)c1cc(NC(=O)c2cc(NC(=O)c3ccc(/C=C/c4cnc5ccccc5c4)cc3)cn2C)cn1C [IVa8, (E)-N-(2-(2-(2-methoxyethoxy)ethoxy)ethyl)-1-methyl-4-(1-methyl-4-(4-(2-(quinolin-3-yl)vinyl)benzamido)-1H-pyrrole-2-carboxamido)-1H-pyrrole-2-carboxamide] | – | – | 70% | 94% | – | 5 to 25 µM (≈ 3.32 to 16.6 µg/mL) | – | 25 to 50% | – | 10 to 25% | – | > 100 µM | – | 5 to 25 µM (≈ 3.32 to 16.6 µg/mL) | 5 to 50 µM | 10 to 25% | T. vaginalis Selectivity Indices, Group (T. vaginalis; Amides): B (Group B: 0.25 < SI <= 0.5)
CC(C)=CCC/C(C)=C/CNC(=O)c1cc(NC(=O)c2cc(NC(=O)c3ccc(/C=C/c4cnc5ccccc5c4)cc3)cn2C)cn1C [IVa10, N—((E)-3,7-dimethylocta-2,6-dien-1-yl)-1-methyl-4-(1-methyl-4-(4-((E)-2-(quinolin-3-yl)vinyl)benzamido)-1H-pyrrole-2-carboxamido)-1H-pyrrole-2-carboxamide] | 5 to 25 µg/mL (≈ 7.64 to 38.2 µM) | – | – | – | 25 to 50 µg/mL (≈ 38.2 to 76.4 µM) | 25 to 100 µM (≈ 16.4 to 65.5 µg/mL) | – | > 50% | > 50 µg/mL | 10 to 25% | – | > 100 µM | – | 5 to 25 µM (≈ 3.27 to 16.4 µg/mL) | 5 to 50 µM | > 50% | –
CC/N=C(\N)CCNC(=O)c1cc(NC(=O)c2cc(NC(=O)c3ccc(/C=C/c4cnc5ccccc5c4)cc3)cn2C)cn1C [Ia14, N—((Z)-3-amino-3-(ethylimino)propyl)-1-methyl-4-(1-methyl-4-(4-((E)-2-(quinolin-3-yl)vinyl)benzamido)-1H-pyrrole-2-carboxamido)-1H-pyrrole-2-carboxamide] | 5 to 25 µg/mL (≈ 8.11 to 40.5 µM) | > 50 µg/mL | 2% | 6% | > 50 µg/mL | < 5 µM | D (D: SI > 10) | – | 5 to 25 µg/mL (≈ 8.11 to 40.5 µM) | < 10% | > 50 µg/mL | > 100 µM | D (D: SI > 10) | < 5 µM | < 1 µM | 10 to 25% | E. faecalis Selectivity Index (SI) [6, 14]: 11; T. vaginalis Selectivity Indices, Group (T. vaginalis; Alkyl Amidines and NH Pyrroles): D (Group D: SI > 32); T. vaginalis Selectivity Index (SI) (T. vaginalis): 35; S. aureus Selectivity Index (SI) [10, 14]: 44
COc1ccc(/C=C/c2ccc(C(=O)Nc3cc(C(=O)Nc4cc(C(=O)NCCC(=N)NC(C)C)n(C)c4)n(C)c3)cn2)cc1 [Ia15, (E)-N-(5-((5-((3-imino-3-(isopropylamino)propyl)carbamoyl)-1-methyl-1H-pyrrol-3-yl)carbamoyl)-1-methyl-1H-pyrrol-3-yl)-6-(4-methoxystyryl)nicotinamide] | 5 to 25 µg/mL (≈ 8.19 to 40.9 µM) | – | 16% | 64% | 25 to 50 µg/mL (≈ 40.9 to 81.9 µM) | 5 to 25 µM (≈ 3.05 to 15.3 µg/mL) | – | – | < 5 µg/mL | – | – | 25 to 100 µM (≈ 15.3 to 61.1 µg/mL) | C (Group C: 5 < SI <= 10) | 5 to 25 µM (≈ 3.05 to 15.3 µg/mL) | > 50 µM | 10 to 25% | IC50 (T. evansi AntTat 3/3): 0.1 to 1 µM; IC50 [1]: 8 to 32 µM; IC50 (T. equiperdum): 0.1 to 1 µM
[H]/N=C(\CCNC(=O)c1cc(NC(=O)c2cc(NC(=O)c3ccc(C=Cc4ccc(C#N)cc4)cc3)cn2C)cn1C)NCC [Ia16, (E)-4-(4-(4-cyanostyryl)benzamido)-N-(5-((3-(ethylamino)-3-iminopropyl)carbamoyl)-1-methyl-1H-pyrrol-3-yl)-1-methyl-1H-pyrrole-2-carboxamide] | 25 to 50 µg/mL (≈ 42.3 to 84.6 µM) | – | 31% | 27% | > 50 µg/mL | 5 to 25 µM (≈ 2.95 to 14.8 µg/mL) | B (Group B: 3 < SI <= 5) | – | 5 to 25 µg/mL (≈ 8.46 to 42.3 µM) | 25 to 50% | – | > 100 µM | – | 25 to 100 µM (≈ 14.8 to 59.1 µg/mL) | 5 to 50 µM | 25 to 50% | –
[H]/N=C(\CCNC(=O)c1cc(NC(=O)c2cc(NC(=O)c3ccc(C=Cc4ccc(C#N)cc4)cc3)cn2C)cn1C)NC(C)C [Ia17, (E)-4-(4-(4-cyanostyryl)benzamido)-N-(5-((3-imino-3-(isopropylamino)propyl)carbamoyl)-1-methyl-1H-pyrrol-3-yl)-1-methyl-1H-pyrrole-2-carboxamide] | 25 to 50 µg/mL (≈ 41.3 to 82.7 µM) | – | 13% | 28% | > 50 µg/mL | 25 to 100 µM (≈ 15.1 to 60.5 µg/mL) | – | – | > 50 µg/mL | 10 to 25% | – | > 100 µM | – | 25 to 100 µM (≈ 15.1 to 60.5 µg/mL) | 5 to 50 µM | 10 to 25% | –
CC(C)NC(=N)CCNC(=O)c1cc(NC(=O)c2cc(NC(=O)c3ccc(/C=C/c4cnc5ccccc5c4)cc3)cn2C)cn1C [Ia21, (E)-N-(3-imino-3-(isopropylamino)propyl)-1-methyl-4-(1-methyl-4-(4-(2-(quinolin-3-yl)vinyl)benzamido)-1H-pyrrole-2-carboxamido)-1H-pyrrole-2-carboxamide] | < 5 µg/mL | 25 to 50 µg/mL (≈ 39.6 to 79.3 µM) | 3% | 2% | 5 to 25 µg/mL (≈ 7.93 to 39.6 µM) | < 5 µM | – | > 50% | > 50 µg/mL | 25 to 50% | 5 to 25 µg/mL (≈ 7.93 to 39.6 µM) | > 100 µM | – | < 5 µM | < 1 µM | 25 to 50% | C. auris Selectivity Indices, Group (Candida auris (H.17.157); [12]): B (Group B: 0.4 < SI <= 1); T. vaginalis Selectivity Indices, Group (T. vaginalis; Alkyl Amidines and NH Pyrroles): D (Group D: SI > 32); T. vaginalis Selectivity Index (SI) (T. vaginalis): 41
